# Measured values: PubChem BioAssay (NCI)
#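 Values below derive from 48-hour exposures of cells grown in 96-well plates, with endpoints linearly interpolated between the two concentrations bracketing the appropriate inhibition level. Here, GI50 denotes the concentration required for 50% inhibition of growth. TGI is the concentration that stops growth completely.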
# Tests used:
# Experiment in all cases: DTP human tumour cell line panel, 48 h
# [1] = tested on: HCT-15 colon
# [2] = tested on: HOP-92 NSCLC
# [3] = tested on: KM12 colon
# [4] = tested on: M14 melanoma
# [5] = tested on: NCI-H522 lung
# [6] = tested on: OVCAR-4 ovarian
# [7] = tested on: OVCAR-8 ovarian
# [8] = tested on: SF-295 CNS
# [9] = tested on: SW-620 colon
# [10] = tested on: HCC-2998 colon
SMILES,GI50 [1] [µM],TGI [1] [µM],GI50 [2] [µM],TGI [2] [µM],GI50 [3] [µM],TGI [3] [µM],GI50 [4] [µM],TGI [4] [µM],GI50 [5] [µM],TGI [5] [µM],GI50 [6] [µM],TGI [6] [µM],GI50 [7] [µM],TGI [7] [µM],GI50 [8] [µM],TGI [8] [µM],GI50 [9] [µM],TGI [9] [µM],TGI [10] [µM],GI50 [10] [µM]
C1CC[N-]CC1.CC(=N\O)/C(C)=N/O.CC(=N\O)/C(C)=N/O.[CH2-]CCN1CCOCC1.[Co+2],> 100,> 100,> 100,> 100,> 100,> 100,> 100,> 100,> 100,> 100,> 100,> 100,> 100,> 100,> 100,> 100,> 100,> 100,,
c1ccc(C2[C@@H]3CCCc4ccccc4C3=NN2c2ccccc2)cc1 (stereo partly specified),,> 100,,,,> 100,,,,> 100,,> 100,,> 100,,> 100,,> 100,> 100,
COc1cc2c(cc1OC)-c1ncc3cc4c(cc3c1C2)OCO4,> 100,> 100,> 100,> 100,38.1,> 100,19.6,82.5,13.2,48.4,57.3,> 100,47.3,> 100,46.2,> 100,34.9,> 100,,
CN(C)CCNc1nc(-c2cccs2)cc(-c2cccs2)n1,,33.2,,8.7,,28.5,,27,,,,,,21.7,,28.2,,29.1,25.3,
CCOC(=S)SCN1C(=O)c2ccccc2S1(=O)=O,19.2,36.1,,,35,> 100,16.4,33.5,11.3,27.8,1.67,3.87,20.8,> 100,18,59.2,4.96,19.7,29.8,16.2
Cc1nnc(-c2ccc(-c3nc4ccccc4o3)cc2)o1,70.8,> 100,> 100,> 100,43.3,> 100,> 100,> 100,> 100,> 100,,,85.6,> 100,40.1,> 100,> 100,> 100,> 100,78.8
CC(=O)CC(=O)/C=C/c1cccs1,,> 100,,,,> 100,,> 100,,> 100,,> 100,,> 100,,> 100,,> 100,,
COc1cc(/C=N\O)nc(-c2ccccn2)c1,,> 100,,> 100,,> 100,,> 45,,56.2,,> 100,,,,> 100,,> 100,> 100,
Nc1ccc(C(=O)N/C(=C\c2cccc([N+](=O)[O-])c2)c2nc3c4c(ccc3[nH]2)C(=O)c2ccccc2C4=O)cc1,,> 100,,93.4,,,,> 100,,71.2,,43.4,,> 100,,> 100,,> 100,> 100,
CCCn1c(N)c(C(=O)CNc2ccc(I)cc2)c(=O)[nH]c1=O,0.264,> 100,7.86,> 24.3,,,> 100,> 100,16,> 100,> 100,> 100,4.72,> 100,0.795,> 63.6,2.89,> 100,> 90.6,4.23
Cc1cc(O)cc2c1c(=O)c1ccccc1n2C,,> 100,,93.6,,> 100,,> 100,,> 100,,> 100,,> 100,,> 100,,> 100,,
COc1cc([C@@H]2c3cc4c(cc3C[C@H]3COC(=O)[C@@H]32)OCO4)cc2c1OCO2,,> 100,,,,3.2,,> 100,,> 100,,> 100,,,,< 0.01,,> 100,< 0.01,
O=C(c1ccccc1)C1C(C(=O)c2ccccc2)C(c2ccccc2)N(c2ccccc2)C1c1ccccc1 (stereo unspecified),,> 100,,> 100,,,,> 100,,> 100,,,,> 100,,> 100,,> 100,> 100,
COc1ccc2nc3cccc(C(=O)NCCN(C)C)c3nc2c1,,6.15,,> 100,,9.82,,,,> 100,,8.72,,,,> 22.8,,,6.16,
C#CCN(Cc1nc2cc(C(F)(F)F)ccc2nc1-c1ccccc1)c1ccc(F)c(F)c1,37.4,> 100,59.5,> 100,,,> 100,> 100,27.5,> 100,> 100,> 100,31.6,> 100,39.7,> 100,36,> 100,96.9,44.8
OCC(O)C(OC1OC(CO)C(O)C(O)C1O)c1nn(-c2ccccc2)c2nc3cc(Cl)ccc3nc12 (stereo unspecified),,> 100,,,,> 100,,> 100,,> 100,,> 100,,> 100,,> 100,,,> 100,
COc1c(N2CCN(Cn3c(O)c(N=NC(=O)c4ccncc4)c4cc(F)ccc43)C(C)C2)c(F)cc2c(=O)c(C(=O)O)cn(C3CC3)c12 (stereo unspecified),17,> 50,22.7,> 50,> 50,> 50,32.9,> 50,> 50,> 50,> 50,> 50,34.8,> 50,23.9,> 50,13.2,> 50,,
Cc1ncc([N+](=O)[O-])n1CCNC(=O)CCCCCn1ccnc1[N+](=O)[O-],,> 100,,,,> 100,,> 100,,> 100,,,,> 100,,> 100,,> 100,> 100,
